One substance from patent publication US10201556B2, “Combination for use in treating diseases or conditions associated with melanoma, or treating diseases or conditions associated with activated B-raf pathway” (InteRNA Technologies B.V., priority 2012, dated 2019) can be followed below.

The series deals with ERK1/MAPK3, RRM2, AURKB, CDK4, BCL2, BIRC5 mRNA. In words: Quantitative real-time PCR of mRNA levels in A375 cells. The settings on record: 10 nM mimic, compared to miRNA control (FIG. 12b). It counts as cell-based, human. The method, then:
Total RNA was isolated using TRI Reagent® (Sigma). To detect miR-3157 and U6 (small nuclear RNA RNU6-1) by qPCR, first 100 ng total RNA was mixed with 50 nM of a miR-3157 specific stem-loop (SL) primer or a U6 Reverse Transcriptase (RT) primer (Table 9), 33 μM dNTPs and 50 units M-MLV Reverse Transcriptase (RT) enzyme (Promega) in a 15 μl SL-RT reaction, and incubated for 30 min at 16° C., 30 min at 42° C. and 5 min at 85° C. For cDNA synthesis of total RNA, 1 μg RNA was mixed with 50 units M-MLV RT enzyme, 0.4 μg random hexamers (Qiagen) and 1 mM dNTPs in a 20 μl cDNA synthesis reaction, and incubated 10 min at 25° C., 120 min at 37° C. and 5 min at 85° C. For miR-3157 and U6 quantification, one μl SL-RT product was used for quantification in a single 20 μl qPCR reaction, using iQ™ SYBR® Green (Bio-Rad), and 0.625 μM forward and reverse primer (Table 9). The PCR protocol was 5 min 95° C. (1×), 10 s 95° C./20 s 60° C./10 s 72° C. (×45). For mRNA quantification, 1 μl cDNA was incubated with 1.25 μM gene-specific forward and reverse primers (Table 10) and iQ™ SYBR® Green in a 20 μl qPCR reaction for 5 min at 95° C. (1×), 15 s 95° C./30 s 60° C./30 s 72° C. (×45). PCR amplification was performed on a CFX96 Touch™ Real-Time PCR Detection System (Bio-Rad).

With “hsa-miR-3157-5p: mature miRNA mimic, SEQ ID NO 6 UUCAGCCAGGCUAGUGCAGUCU (listed as RNA, chemistry not given here)”, the “mRNA levels of ERK1, RRM2, AURKB, CDK4, BCL2, BIRC5 by qPCR” value is “reduced mRNA levels”.
